Reference: patent publication US20240417735A1, “ORAL CODELIVERY OF 5-FLUOREURACIL AND Bcl2 siRNA TREATING STOMACH CANCER” (Board of Regents, The University of Texas System, priority 2023, published 2024)

Legend:
[1] = Ex vivo diffusion study in porcine intestine lumen; format: in vitro ADME; settings: for distribution in intestine layers (fluorescence): with BG
Text: The mucoadhesiveness and intestinal transportation of hydrophobic small molecule were further confirmed by an ex vivo diffusion study in a porcine intestine lumen. As the mucous layer is a barrier for hydrophobic molecules, to check how it crosses through the epithelial layer with assistance of BG we have used coumarin-6, a small molecule hydrophobic fluorescent dye with similar chemical and physical properties (molecular weight and hydrophobicity) as 5FU, for ease of visualization and detection purpose. […] The same tissue was subjected to be observed under a ChemiDoc imager to capture the fluorescence signal within the cross-sectioned of the intestinal lumen and similar result was observed. With time (30 min, 2 hr, and 12 hr) more coumarin-6 were distributed throughout the intestine which is an indication and confirmation of BG's ability to facilitate intestinal transportation of hydrophobic payload (FIG. 2C).

Ki67 = experiment: Immunofluorescence of Ki67 in stomach sections; format: in vivo, C57BL/6 mice; settings: vs whole tissue section DAPI stained
Procedure: (§1) A stomach cancer mice model was developed by feeding N-methyl-N-nitrosourea (NMNU) with water (IACUC protocol no A-201019-A). The 6-week-old C57BL/6 mice were kept in a 12 hr light-12 hr dark cycle. The mice had unprotected access to food and water. NMNU was dissolved in distilled water available ad libitum, freshly prepared three times per week. The mice received 240 ppm NMNU in the drinking water over 5 weeks (every other week). Five weeks after NMNU administration, the mice were ready for the experiment, as the method was reported elsewhere. A total of 30 stomach cancer mice were prepared and divided randomly into […]—no treatment (control), 5FU, BG/5FU, siRNA, BG/siRNA, and BG/5FU/siRNA. Another group of healthy mice were used as a negative control without any treatment. […] Immediately after harvesting the size and weight of the stomach and intestine were measured. […]
Cell proliferation marker was measured by immunofluorescence assay to evaluate the antitumor effect of the formulations. […] The protein expression was quantified from immunofluorescence images. The area with Ki67 positive cells was measured in compared to the whole tissue section with DAPI stained. The area (%) of healthy, untreated, 5FU, BG/5FU, siRNA, BG/siRNA, and BG/5FU/siRNA was measured as 0.16%, 0.27%, 0.54%, 0.52%, 0.38%, 0.29%, and 0.03%, respectively. […]

[2] = tested on: stomach cancer mice model; experiment: H&E histology of stomach; format: in vivo, C57BL/6 mice; settings: 10× magnification, whole tumor area
Procedure: A stomach cancer mice model was developed by feeding N-methyl-N-nitrosourea (NMNU) with water (IACUC protocol no A-201019-A). The 6-week-old C57BL/6 mice were kept in a 12 hr light-12 hr dark cycle. The mice had unprotected access to food and water. NMNU was dissolved in distilled water available ad libitum, freshly prepared three times per week. The mice received 240 ppm NMNU in the drinking water over 5 weeks (every other week). Five weeks after NMNU administration, the mice were ready for the experiment, as the method was reported elsewhere. A total of 30 stomach cancer mice were prepared and divided randomly into […]—no treatment (control), 5FU, BG/5FU, siRNA, BG/siRNA, and BG/5FU/siRNA. Another group of healthy mice were used as a negative control without any treatment. To investigate therapeutic feasibility, 5FU (10 mg/kg) and siRNA (100 nM) was administered either orally (PO) or intravenously (IV). All the formulations were freshly prepared prior to administration. Formulations were administered orally on every 3rd day for the subsequent 5 cycles over 15 days. The animals were sacrificed 72 hr after the last treatment followed by the organ harvest and blood collection for further studies. Immediately after harvesting the size and weight of the stomach and intestine were measured. […]

Bcl2 [3] = experiment: Western blotting of Bcl2 in stomach tissue lysate; format: in vivo, C57BL/6 mice; settings: healthy = 1
Procedure: A stomach cancer mice model was developed by feeding N-methyl-N-nitrosourea (NMNU) with water (IACUC protocol no A-201019-A). The 6-week-old C57BL/6 mice were kept in a 12 hr light-12 hr dark cycle. The mice had unprotected access to food and water. NMNU was dissolved in distilled water available ad libitum, freshly prepared three times per week. The mice received 240 ppm NMNU in the drinking water over 5 weeks (every other week). Five weeks after NMNU administration, the mice were ready for the experiment, as the method was reported elsewhere. A total of 30 stomach cancer mice were prepared and divided randomly into […]—no treatment (control), 5FU, BG/5FU, siRNA, BG/siRNA, and BG/5FU/siRNA. Another group of healthy mice were used as a negative control without any treatment. To investigate therapeutic feasibility, 5FU (10 mg/kg) and siRNA (100 nM) was administered either orally (PO) or intravenously (IV). All the formulations were freshly prepared prior to administration. […] Immediately after harvesting the size and weight of the stomach and intestine were measured.
The fresh frozen stomach tissue was homogenized using RIPA buffer with freshly prepared protease inhibitor in it. […] The supernatant was collected, and the total protein content was determined using Bradford's assay (Sigma-Aldrich). […] The band intensities were calculated using ImageJ software.

[4] = tested on: stomach cancer mice model; experiment: TUNEL assay of apoptosis in stomach tissue of stomach cancer mice; format: in vivo, C57BL/6 mice; settings: relative to untreated control; oral, 5 doses every 3rd day
Procedure: A stomach cancer mice model was developed by feeding N-methyl-N-nitrosourea (NMNU) with water (IACUC protocol no A-201019-A). The 6-week-old C57BL/6 mice were kept in a 12 hr light-12 hr dark cycle. The mice had unprotected access to food and water. NMNU was dissolved in distilled water available ad libitum, freshly prepared three times per week. The mice received 240 ppm NMNU in the drinking water over 5 weeks (every other week). Five weeks after NMNU administration, the mice were ready for the experiment, as the method was reported elsewhere. A total of 30 stomach cancer mice were prepared and divided randomly into 5 groups—no treatment (control), 5FU, BG/5FU, siRNA, BG/siRNA, and BG/5FU/siRNA. Another group of healthy mice were used as a negative control without any treatment. […] Immediately after harvesting the size and weight of the stomach and intestine were measured.
A TUNEL assay was conducted to investigate the apoptosis within the tissue from the stomach of both healthy, untreated cancer, and treated cancer mice. […] Apoptosis was quantified by the mean fluorescent intensity and compared with healthy control and untreated control. The degree of apoptosis was calculated as 49, 107, 38, 62, and 131% for the 5FU, BG/5FU, siRNA, BG/siRNA, and BG/5FU/siRNA group relative to untreated control, respectively.

[5] = tested on: advanced colorectal cancer; settings: cited from earlier work
Bcl2 [6] = experiment: Immunohistochemistry/immunofluorescence of Bcl2 in stomach sections; format: in vivo, C57BL/6 mice; settings: anti-Bcl2 positive area vs whole section stained with DAPI
Procedure: as §1
The stomach tissue was also utilized to analysis Bcl2 protein expression using immunohistochemistry (IHC). The anti-Bcl2 positive area was quantified in comparison to the whole tissue section stained with DAPI. […] To measure the relative expression of Bcl2 on the tissue section the data was calculated and compared with the stomach tissue collected from the healthy mice, where Bcl2 expression in healthy mice was considered as 100% (FIG. 5B). […]

Structure (SMILES) | distribution in intestine layers (fluorescence) ([1]; 2nd hr) | distribution in intestine layers (fluorescence) ([1]; 12th hr) | diffusion through the intestinal layer ([1]; without BG) | area of Ki67 positive cells (Ki67) | tumor in stomach by H&E [2] | Relative expression of Bcl2 (WB) (Bcl2 [3]) | degree of apoptosis (mean fluorescent intensity) [4] | treatment response rate [5] | area percentage of Bcl2 antibodies (Bcl2 [6])
CCN(CC)c1ccc2cc(-c3nc4ccccc4s3)c(=O)oc2c1 [coumarin-6, Coumarin 6] | observed within deeper layers of the intestine | incorporates evenly across the layers of the intestine | not able to diffuse through the intestinal layer | – | – | – | – | – | –
O=c1[nH]cc(F)c(=O)[nH]1 [5FU, 5-fluoreuracil] | – | – | – | 0.54% | tumor region got significantly reduced | 1.24±0.11 | 49% | 10-15% | 1.22%
